In ChEMBL document CHEMBL5244219, “Recent developments of quinolone-based derivatives and their activities against Escherichia coli” (Eur J Med Chem, 2018):
Converted amounts (≈) assume the structure as drawn.

Legend:
Type in all cases: functional
Escherichia coli [1] = assay: Antibacterial activity against Escherichia coli assessed as bacterial growth inhibition by microdilution method
Escherichia coli [2] = assay: Antibacterial activity against Escherichia coli MTCC 739 assessed as bacterial growth inhibition incubated for 24 hrs by spectrophotometric method
Escherichia coli [3] = assay: Antibacterial activity against Escherichia coli ATCC 8739 assessed as bacterial growth inhibition incubated for 24 hrs by two-serial dilution method
Escherichia coli [4] = assay: Antibacterial activity against Escherichia coli assessed as bacterial growth inhibition incubated for 16 to 24 hrs by absorbance analysis; conditions: time 16-24 hrs
Escherichia coli [5] = assay: Antibacterial activity against Escherichia coli 2010-05 assessed as bacterial growth inhibition measured after 24 hrs by agar dilution method
Escherichia coli [6] = assay: Antibacterial activity against Escherichia coli NIHJ JC-2 assessed as bacterial growth inhibition measured after 24 hrs by agar dilution method
Escherichia coli [7] = assay: Antibacterial activity against Escherichia coli 2010-29 assessed as bacterial growth inhibition measured after 24 hrs by agar dilution method
Escherichia coli [8] = assay: Antibacterial activity against Escherichia coli NIHJ assessed as bacterial growth inhibition measured after 24 hrs by agar dilution method
Escherichia coli [9] = assay: Antibacterial activity against Escherichia coli assessed as bacterial growth inhibition measured after 24 hrs by broth micro dilution method
Escherichia coli [10] = assay: Antibacterial activity against Escherichia coli assessed as bacterial growth inhibition incubated for 18 to 20 hrs by agar dilution method; conditions: time 18-20 hrs
Escherichia coli [11] = assay: Antibacterial activity against Escherichia coli assessed as zone of inhibition at 500 to 1000 ug per disc; conditions: dose 500-1000 µg
Escherichia coli [12] = assay: Antibacterial activity against Escherichia coli KC-14 infected in po dosed mouse assessed as bacterial growth inhibition; conditions: Escherichia coli, KC-14, read-out: ED50
Escherichia coli [13] = assay: Antibacterial activity against Escherichia coli NCTC 10418 assessed as bacterial growth inhibition incubated for 18 to 20 hrs by agar dilution method; conditions: time 18-20 hrs

`CC(=O)NC[C@H]1CN(c2ccc(N3CCN(c4nc5c(cc4F)c(=O)c(C(=O)O)cn5C4CC4)CC3)c(F)c2)C(=O)O1` was tested, and the MIC (Escherichia coli [1]) was ≥ 0.5 µg/mL.
`COc1ccc(N2CCN(Cn3nc(COc4cc(=O)n(C)c5ccccc45)oc3=S)CC2)cc1` gave an MIC (Escherichia coli [2]) of 25 µg/mL (≈ 50.6 µM).
In the case of `Cc1ccc(-c2nc3c(F)cc4c(=O)c(C(=O)O)cn(C5CC5)c4c3[nH]2)cc1`, the MIC (Escherichia coli [3]) is reported as > 3 µg/mL.
`Cc1[nH]c2ccc([N+](=O)[O-])cc2c(=O)c1CC(=O)O` gave an MIC (Escherichia coli [4]) of 8.97 µg/mL (≈ 34.2 µM).
`CNC1CN(c2c(F)c(C)c3c(=O)c(C(=O)O)cn(-c4cc(N)c(F)cc4CO)c3c2Cl)C1` showed an MIC (Escherichia coli [5]) of 1 µg/mL (≈ 2.09 µM), an MIC (Escherichia coli [6]) of 0.008 µg/mL (≈ 0.0167 µM) and an MIC (Escherichia coli [7]) of 1 µg/mL (≈ 2.09 µM). It also gave an MIC (Escherichia coli [8]) of 0.008 µg/mL (≈ 0.0167 µM).
In the case of `CCn1cc(C(=O)O)c(=O)c2cc(F)c(-n3cc(CO[C@H]4OC[C@@H](OC(C)=O)[C@H](OC(C)=O)[C@H]4OC(C)=O)nn3)c(F)c21`, the MIC (Escherichia coli [9]) is reported as > 6.25 µg/mL.
In the case of `CCn1cc(C(=O)O)c(=O)c2cc(F)c(N3CCN(CN4C(=O)/C(=N\c5ncc(Cc6cc(OC)c(OC)c(OC)c6)c(N)n5)c5ccccc54)CC3)cc21`, the MIC (Escherichia coli [10]) is reported as 0.0763 µg/mL (≈ 0.102 µM).
`Cn1c(=O)cc(OCc2nn(CN3CCN(c4ccc(F)cc4)CC3)c(=S)o2)c2ccccc21` gave an MIC (Escherichia coli [2]) of 25 µg/mL (≈ 51.9 µM).
With `Cn1c(=O)cc(OCc2nn(CN3CCN(c4cccc(C(F)(F)F)c4)CC3)c(=S)s2)c2ccccc21` the MIC (Escherichia coli [2]) was 25 µg/mL (≈ 45.7 µM).
`CC1(N)CN(c2c(F)cc3c(=O)c(C(=O)O)cn(-c4cc(N)c(F)cc4CO)c3c2Cl)C1` was tested, and the MIC (Escherichia coli [5]) was 1 µg/mL (≈ 2.15 µM), the MIC (Escherichia coli [6]) was 0.008 µg/mL (≈ 0.0172 µM) and the MIC (Escherichia coli [7]) was 1 µg/mL (≈ 2.15 µM). It also gave an MIC (Escherichia coli [8]) of 0.008 µg/mL (≈ 0.0172 µM).
`Cn1c(=O)cc(OCc2nn(CN3CCN(c4ccc(F)cc4)CC3)c(=S)s2)c2ccccc21` gave an MIC (Escherichia coli [2]) of 25 µg/mL (≈ 50.2 µM).
In the case of `CCn1cc(C(=O)O)c(=O)c2cc(F)c(-n3cc(CO[C@H]4OC[C@@H](OC(C)=O)[C@@H](OC(C)=O)[C@@H]4OC(C)=O)nn3)c(F)c21`, the MIC (Escherichia coli [9]) is reported as > 6.25 µg/mL.
For `CCn1c(=O)c(C(=O)/C=C/c2cccs2)c(O)c2ccccc21`, the “diameter of the inhibition zone (DIZ)” value (Escherichia coli [11]) was 7 mm.
In the case of `CCn1cc(C(=O)O)c(=O)c2cc(F)c(-n3cc(CO[C@H]4O[C@H](COC(C)=O)[C@H](OC(C)=O)[C@H](OC(C)=O)[C@H]4OC(C)=O)nn3)c(F)c21`, the MIC (Escherichia coli [9]) is reported as > 6.25 µg/mL.
Work on `CNC1CN(c2c(F)c(N)c3c(=O)c(C(=O)O)cn(-c4cc(N)c(F)cc4CO)c3c2Cl)C1` yielded an MIC (Escherichia coli [5]) of 1 µg/mL (≈ 2.08 µM), an MIC (Escherichia coli [6]) of 0.008 µg/mL (≈ 0.0167 µM) and an MIC (Escherichia coli [7]) of 1 µg/mL (≈ 2.08 µM). It also gave an MIC (Escherichia coli [8]) of 0.008 µg/mL (≈ 0.0167 µM).
Compound `CCOC(=O)c1c2n(c3cc(N4CCNCC4)c(F)cc3c1=O)C(C)S2` (stereo not given) has an ED50 (Escherichia coli [12]) of 0.78 mg/kg.
Compound `CCn1cc(C(=O)O)c(=O)c2cc(F)c(N3CCN(CN4C(=O)/C(=N\c5ncc(Cc6cc(OC)c(OC)c(OC)c6)c(N)n5)c5ccccc54)C(C)C3)c(F)c21` (stereo not given) has an MIC (Escherichia coli [10]) of 0.305 µg/mL (≈ 0.39 µM).
`CCn1cc(C(=O)O)c(=O)c2cc(F)c(N3CCNC(C)C3)c(F)c21` (stereo not given) [LOMEFLOXACIN] was tested, and the MIC (Escherichia coli [10]) was 0.02 µg/mL (≈ 0.0569 µM).
`Cn1c(=O)cc(OCc2nn(CN3CCN(c4ccccc4F)CC3)c(=S)s2)c2ccccc21` was tested, and the MIC (Escherichia coli [2]) was 25 µg/mL (≈ 50.2 µM).
With `O=C(O)c1cn(C2CC2)c2c(cc(F)c3nc(-c4cccs4)[nH]c32)c1=O` the MIC (Escherichia coli [3]) was > 3 µg/mL.
Work on `Cc1[nH]c2cc3ccccc3cc2c(=O)c1CC(=O)O` yielded an MIC (Escherichia coli [4]) of 8.97 µg/mL (≈ 33.6 µM).
In the case of `O=C(O)c1cn(C2CC2)c2c(cc(F)c3nc(-c4ccc(Cl)cc4)[nH]c32)c1=O`, the MIC (Escherichia coli [3]) is reported as > 3 µg/mL.
In the case of `O=C(O)c1cn(C2CC2)c2c(cc(F)c3nc(-c4ccccn4)[nH]c32)c1=O`, the MIC (Escherichia coli [3]) is reported as > 3 µg/mL.
For `O=C(O)c1cn(C2CC2)c2c(cc(F)c3nc[nH]c32)c1=O`, the MIC (Escherichia coli [3]) was > 3 µg/mL.
In the case of `CCn1cc(C(=O)O)c(=O)c2cc(F)c(-n3cc(CO[C@H]4OC[C@@H](OC(C)=O)[C@@H](OC(C)=O)[C@H]4OC(C)=O)nn3)c(F)c21`, the MIC (Escherichia coli [9]) is reported as > 6.25 µg/mL.
`Cn1c(=O)cc(OCc2nn(CN3CCN(c4ccccc4F)CC3)c(=S)o2)c2ccccc21` was tested, and the MIC (Escherichia coli [2]) was 25 µg/mL (≈ 51.9 µM).
For `CCn1cc(C(=O)O)c(=O)c2cc(F)c(N3CCN(CN4C(=O)C(=O)c5cc(Cl)ccc54)CC3)cc21`, the MIC (Escherichia coli [13]) was ≤ 0.018 µg/mL.
Work on `COc1cc(Cc2cnc(/N=C3\C(=O)N(CN4CCN(c5cc6c(cc5F)c(=O)c(C(=O)O)cn6C5CC5)CC4)c4ccccc43)nc2N)cc(OC)c1OC` yielded an MIC (Escherichia coli [10]) of 0.0095 µg/mL (≈ 0.0125 µM).
`O=C(O)c1cn(C2CC2)c2c(cc(F)c3nc(-c4ccccc4)[nH]c32)c1=O` was tested, and the MIC (Escherichia coli [3]) was > 3 µg/mL.
`Cc1[nH]c2ccc(Br)cc2c(=O)c1CC(=O)O` gave an MIC (Escherichia coli [4]) of 8.97 µg/mL (≈ 30.3 µM).
With `CCn1cc(C(=O)O)c(=O)c2cc(F)c(-n3cc(CO[C@H]4O[C@H](COC(C)=O)[C@@H](OC(C)=O)[C@H](OC(C)=O)[C@H]4NC(C)=O)nn3)c(F)c21` the MIC (Escherichia coli [9]) was > 6.25 µg/mL.
`CCn1c(=O)c(C(=O)/C=C/c2ccsc2)c(O)c2ccccc21` was tested, and the “diameter of the inhibition zone (DIZ)” value (Escherichia coli [11]) was 7 mm.
With `CCn1cc(C(=O)O)c(=O)c2cc(F)c(N3CCN(CN4C(=O)/C(=N/NC(N)=S)c5cc(Br)ccc54)CC3)cc21` the MIC (Escherichia coli [13]) was ≤ 0.018 µg/mL.
With `CCn1cc(C(=O)O)c(=O)c2cc(F)c(-n3cc(CO[C@H]4O[C@H](COC(C)=O)[C@@H](OC(C)=O)[C@H](OC(C)=O)[C@@H]4OC(C)=O)nn3)c(F)c21` the MIC (Escherichia coli [9]) was > 6.25 µg/mL.
`Cc1ccc2[nH]c(=O)c3cnn(Cc4ccccc4)c3c2c1` was tested, and the “diameter of the inhibition zone (DIZ)” value (Escherichia coli [11]) was 7 mm.
Compound `Cn1c(=O)cc(OCc2nn(CN3CCN(c4ccc(C(F)(F)F)cc4)CC3)c(=S)o2)c2ccccc21` has an MIC (Escherichia coli [2]) of 25 µg/mL (≈ 47 µM).
